In US12162840B2, “Herbicidal compositions” (SYNGENTA PARTICIPATIONS AG, priority 2018, dated 2024):

Tested on: warm season plant species
Assay: B2 Post-emergence efficacy Test 2, warm season plant species
Assay type: in vivo
Conditions: 15 days after application, 0-100 scale, 0=no damage, 100=total kill; for Herbicidal activity, ABUTH: Abutilon theophrasti; for Herbicidal activity, AMARE: Amaranthus retroflexus; for Herbicidal activity, BIDPI: Bidens pilosa; for Herbicidal activity, BRAPL: Brachiaria plantaginea; for Herbicidal activity, DIGSA: Digitaria sanguinalis; for Herbicidal activity, ECHCG: Echinochloa crus galli; for Herbicidal activity, ELEIN: Eleisine indica; for Herbicidal activity, EPHHL: Euphorbia hetrophylla; for Herbicidal activity, GLXMA: Glycine max; for Herbicidal activity, IPOHE: Ipomoea hederacea; for Herbicidal activity, ORYSA: Orysa sativa; for Herbicidal activity, PANMI: Panicum miliaceum; for Herbicidal activity, SETFA: Setaria faberi; for Herbicidal activity, SIDSP: Sida spinosa; for Herbicidal activity, SORVU: Sorghum bicolour; for Herbicidal activity, XANST: Xanthium strumarium; for Herbicidal activity, ZEAMX: Zea mays
Protocol: Seeds of a variety of test species (see Table B1) were sown in standard soil in pots. After cultivation for 12 days (post-emergence) under controlled conditions in a glasshouse (at 24/18° C. or 20/16° C., at day/night; 16 hours light; 65% humidity), the plants were sprayed with an aqueous spray solution derived from the formulation of the technical active ingredient dissolved in IF50 (see Table B2 for composition) and adjuvant (Genapol XO80) was added to the spray solution at a rate of 0.2% v/v. [table] [table] After application, the test plants were grown in a glasshouse under controlled conditions (as above) and watered twice daily. Herbicidal activity was evaluated 15 days after application on a 0-100 scale. The results, where 0=no damage to test plant and 100=total kill of test plant are shown below in Tables 6 to 9.

SMILES: Cc1nn(C)c(=O)c(-c2c(F)ccc(Cl)c2CCc2ccc(F)cc2)c1O [Compound 1.048]
- Herbicidal activity, ABUTH (15 g/Ha): 60
- Herbicidal activity, ABUTH (30 g/Ha): 80
- Herbicidal activity, ABUTH (60 g/Ha): 90
- Herbicidal activity, ABUTH (125 g/Ha): 90
- Herbicidal activity, ABUTH (250 g/Ha): 90
- Herbicidal activity, ABUTH (500 g/Ha): 100
- Herbicidal activity, AMARE (15 g/Ha): 60
- Herbicidal activity, AMARE (30 g/Ha): 80
- Herbicidal activity, AMARE (60 g/Ha): 90
- Herbicidal activity, AMARE (125 g/Ha): 90
- Herbicidal activity, AMARE (250 g/Ha): 100
- Herbicidal activity, AMARE (500 g/Ha): 100
- Herbicidal activity, BIDPI (15 g/Ha): 70
- Herbicidal activity, BIDPI (30 g/Ha): 70
- Herbicidal activity, BIDPI (60 g/Ha): 70
- Herbicidal activity, BIDPI (125 g/Ha): 70
- Herbicidal activity, BIDPI (250 g/Ha): 100
- Herbicidal activity, BIDPI (500 g/Ha): 100
- Herbicidal activity, BRAPL (15 g/Ha): 20
- Herbicidal activity, BRAPL (30 g/Ha): 60
- Herbicidal activity, BRAPL (60 g/Ha): 80
- Herbicidal activity, BRAPL (125 g/Ha): 80
- Herbicidal activity, BRAPL (250 g/Ha): 90
- Herbicidal activity, BRAPL (500 g/Ha): 100
- Herbicidal activity, DIGSA (15 g/Ha): 0
- Herbicidal activity, DIGSA (30 g/Ha): 10
- Herbicidal activity, DIGSA (60 g/Ha): 20
- Herbicidal activity, DIGSA (125 g/Ha): 20
- Herbicidal activity, DIGSA (250 g/Ha): 50
- Herbicidal activity, DIGSA (500 g/Ha): 70
- Herbicidal activity, ECHCG (15 g/Ha): 60
- Herbicidal activity, ECHCG (30 g/Ha): 80
- Herbicidal activity, ECHCG (60 g/Ha): 80
- Herbicidal activity, ECHCG (125 g/Ha): 90
- Herbicidal activity, ECHCG (250 g/Ha): 90
- Herbicidal activity, ECHCG (500 g/Ha): 100
- Herbicidal activity, ELEIN (15 g/Ha): 0
- Herbicidal activity, ELEIN (30 g/Ha): 50
- Herbicidal activity, ELEIN (60 g/Ha): 60
- Herbicidal activity, ELEIN (125 g/Ha): 60
- Herbicidal activity, ELEIN (250 g/Ha): 80
- Herbicidal activity, ELEIN (500 g/Ha): 80
- Herbicidal activity, EPHHL (15 g/Ha): 50
- Herbicidal activity, EPHHL (30 g/Ha): 70
- Herbicidal activity, EPHHL (60 g/Ha): 90
- Herbicidal activity, EPHHL (125 g/Ha): 90
- Herbicidal activity, EPHHL (250 g/Ha): 100
- Herbicidal activity, EPHHL (500 g/Ha): 100
- Herbicidal activity, GLXMA (15 g/Ha): 70
- Herbicidal activity, GLXMA (30 g/Ha): 80
- Herbicidal activity, GLXMA (60 g/Ha): 90
- Herbicidal activity, GLXMA (125 g/Ha): 90
- Herbicidal activity, GLXMA (250 g/Ha): 90
- Herbicidal activity, GLXMA (500 g/Ha): 100
- Herbicidal activity, IPOHE (15 g/Ha): 70
- Herbicidal activity, IPOHE (30 g/Ha): 80
- Herbicidal activity, IPOHE (60 g/Ha): 100
- Herbicidal activity, IPOHE (125 g/Ha): 100
- Herbicidal activity, IPOHE (250 g/Ha): 100
- Herbicidal activity, IPOHE (500 g/Ha): 100
- Herbicidal activity, ORYSA (15 g/Ha): 0
- Herbicidal activity, ORYSA (30 g/Ha): 0
- Herbicidal activity, ORYSA (60 g/Ha): 0
- Herbicidal activity, ORYSA (125 g/Ha): 0
- Herbicidal activity, ORYSA (250 g/Ha): 10
- Herbicidal activity, ORYSA (500 g/Ha): 30
- Herbicidal activity, PANMI (15 g/Ha): 0
- Herbicidal activity, PANMI (30 g/Ha): 20
- Herbicidal activity, PANMI (60 g/Ha): 30
- Herbicidal activity, PANMI (125 g/Ha): 80
- Herbicidal activity, PANMI (250 g/Ha): 100
- Herbicidal activity, PANMI (500 g/Ha): 100
- Herbicidal activity, SETFA (15 g/Ha): 0
- Herbicidal activity, SETFA (30 g/Ha): 40
- Herbicidal activity, SETFA (60 g/Ha): 40
- Herbicidal activity, SETFA (125 g/Ha): 70
- Herbicidal activity, SETFA (250 g/Ha): 80
- Herbicidal activity, SETFA (500 g/Ha): 100
- Herbicidal activity, SIDSP (15 g/Ha): 80
- Herbicidal activity, SIDSP (30 g/Ha): 80
- Herbicidal activity, SIDSP (60 g/Ha): 80
- Herbicidal activity, SIDSP (125 g/Ha): 90
- Herbicidal activity, SIDSP (250 g/Ha): 90
- Herbicidal activity, SIDSP (500 g/Ha): 90
- Herbicidal activity, SORVU (15 g/Ha): 0
- Herbicidal activity, SORVU (30 g/Ha): 30
- Herbicidal activity, SORVU (60 g/Ha): 70
- Herbicidal activity, SORVU (125 g/Ha): 70
- Herbicidal activity, SORVU (250 g/Ha): 80
- Herbicidal activity, SORVU (500 g/Ha): 90
- Herbicidal activity, XANST (60 g/Ha): 90
- Herbicidal activity, XANST (125 g/Ha): 90
- Herbicidal activity, XANST (250 g/Ha): 90
- Herbicidal activity, XANST (500 g/Ha): 100
- Herbicidal activity, ZEAMX (15 g/Ha): 0
- Herbicidal activity, ZEAMX (30 g/Ha): 10
- Herbicidal activity, ZEAMX (60 g/Ha): 50
- Herbicidal activity, ZEAMX (125 g/Ha): 50
- Herbicidal activity, ZEAMX (250 g/Ha): 70
- Herbicidal activity, ZEAMX (500 g/Ha): 100
